According to ChEMBL document CHEMBL4138213, “Synthesis and biological characterization of ubenimex-fluorouracil conjugates for anti-cancer therapy” (Eur J Med Chem, 2018):
Calls of active or inactive are those of the source. The calls are words filed in the database; no cut-off is given here.

Experiments:
[1] = Drug level in Wistar rat plasma treated with (5-fluoro-2,4-dioxo-3,4-dihydropyrimidin1(2H)-yl)methyl-2-((S)-2-((2S,3R)-3-amino-2-hydroxy-4-phenylbut-anamido)-4-methylpentanamido)acetate hydrochloride assessed as carboxylesterase-mediated compound formation at 80 mg/kg, iv by HPLC-MS/MS analysis; format: ADME, organism-based; settings: in vivo
PLC-PRF-5 [2] = test: Induction of apoptosis in human PLC/PRF/5 cells assessed as necrotic cells at 20 uM in presence of ubenimex after 48 hrs by annexin-V-FITC/propidium iodide staining-based flow cytometric method (reference value: 0.106%); format: functional
[3] = Volume of distribution during elimination phase in Wistar rat at 80 mg/kg, iv after 0.05 to 24 hrs by HPLC-MS/MS analysis; format: ADME, organism-based; settings: in vivo, read-out: Vz
PLC-PRF-5 [4] = test: Downregulation of CD13 expression in human PLC/PRF/5 cells at 10 uM in presence of ubenimex after 48 hrs by flow cytometric method; format: functional, cell-based
[5] = MRT (0 to infinity) in Wistar rat at 80 mg/kg, iv after 0.05 to 24 hrs by HPLC-MS/MS analysis; format: ADME, organism-based; settings: Wistar, in vivo
PLC-PRF-5 [6] = test: Induction of apoptosis in human PLC/PRF/5 cells assessed as necrotic cells at 20 uM after 48 hrs by annexin-V-FITC/propidium iodide staining-based flow cytometric method (reference value: 0.106%); format: functional
[7] = Antiproliferative activity against human H7402 cells after 48 hrs by MTT assay; settings: H7402, 48 h
PLC-PRF-5 [8] = test: Induction of apoptosis in human PLC/PRF/5 cells assessed as early apoptotic cells at 20 uM after 48 hrs by annexin-V-FITC/propidium iodide staining-based flow cytometric method (reference value: 5.82%); format: functional
PLC-PRF-5 [9] = test: Antiproliferative activity against human PLC/PRF/5 cells after 48 hrs by MTT assay; settings: PLC-PRF-5, 48 h
H22 = test: Antitumor activity against 5-FU-resistant […] cells xenografted in Kunming mouse at 20 mg/kg, ip after 14 days; format: functional, organism-based
HepG2 [10] = test: cells; settings: Homo sapiens, HepG2, 48 h
HepG2 [11] = test: cells; settings: Homo sapiens, HepG2, 48 h; remark: listed apart in the source
[12] = Cmax in Wistar rat at 80 mg/kg, iv after 0.05 to 24 hrs by HPLC-MS/MS analysis; format: ADME, organism-based; design: dose 80 mg/kg, route intravenous; settings: in vivo
A549 = test: Antiproliferative activity against human A549 cells after 48 hrs by MTT assay; settings: A549, 48 h
PLC-PRF-5 [13] = test: Induction of apoptosis in human PLC/PRF/5 cells assessed as viable cells at 20 uM in presence of ubenimex after 48 hrs by annexin-V-FITC/propidium iodide staining-based flow cytometric method (reference value: 93.7%); format: functional; settings: PLC-PRF-5, 48 h, read-out: Activity
PLC-PRF-5 [14] = test: Induction of apoptosis in human PLC/PRF/5 cells assessed as viable cells at 20 uM after 48 hrs by annexin-V-FITC/propidium iodide staining-based flow cytometric method (reference value: 93.7%); format: functional; settings: PLC-PRF-5, 48 h, read-out: Activity
HCT-116 [15] = test: cells; settings: Homo sapiens, HCT-116, 48 h
PLC-PRF-5 [16] = test: Induction of apoptosis in human PLC/PRF/5 cells assessed as late apoptotic cells at 20 uM in presence of ubenimex after 48 hrs by annexin-V-FITC/propidium iodide staining-based flow cytometric method (reference value: 0.341%); format: functional
U-937 [17] = test: cells; settings: Homo sapiens, U-937, 48 h
Description: Antiproliferative activity against human U937 cells after 48 hrs by MTT assay

U-937 [18] = test: Antiproliferative activity against human U937 cells in presence of ubenimex after 48 hrs by MTT assay; format: functional, cell-based; settings: U-937, 48 h
PLC-PRF-5 [19] = test: Downregulation of CD13 expression in human PLC/PRF/5 cells at 10 uM after 48 hrs by flow cytometric method; format: functional, cell-based
HCT-116 [20] = test: cells; settings: Homo sapiens, HCT-116, 48 h; remark: listed apart in the source
U-266 [21] = test: Antiproliferative activity against human U266 cells after 48 hrs by MTT assay; settings: U-266, 48 h
cells [22] = settings: Homo sapiens, ES-2, 48 h
Description: Antiproliferative activity against human ES2 cells after 48 hrs by MTT assay

cells [23] = settings: Homo sapiens, H7402, 48 h
PLC-PRF-5 [24] = test: Induction of apoptosis in human PLC/PRF/5 cells assessed as early apoptotic cells at 20 uM in presence of ubenimex after 48 hrs by annexin-V-FITC/propidium iodide staining-based flow cytometric method (reference value: 5.82%); format: functional
[25] = Apparent clearance in Wistar rat at 80 mg/kg, iv after 0.05 to 24 hrs by HPLC-MS/MS analysis; format: ADME, organism-based; settings: in vivo, read-out: CL(app) (converted)
[26] = AUC (0 to infinity) in Wistar rat at 80 mg/kg, iv after 0.05 to 24 hrs by HPLC-MS/MS analysis; format: ADME, organism-based; design: dose 80 mg/kg, time infinity, route intravenous; settings: in vivo
PLC-PRF-5 [27] = test: Induction of apoptosis in human PLC/PRF/5 cells assessed as late apoptotic cells at 20 uM after 48 hrs by annexin-V-FITC/propidium iodide staining-based flow cytometric method (reference value: 0.341%); format: functional
cells [28] = settings: Homo sapiens, ES-2, 48 h; remark: listed apart in the source
Rattus norvegicus = test: VRT (0 to infinity) in Wistar rat at 80 mg/kg, iv after 0.05 to 24 hrs by HPLC-MS/MS analysis; format: ADME, organism-based; settings: in vivo
PLC-PRF-5 [29] = test: Antiproliferative activity against human PLC/PRF/5 cells in presence of ubenimex after 48 hrs by MTT assay; format: functional, cell-based; settings: PLC-PRF-5, 48 h
[30] = Drug level in human plasma treated with (5-fluoro-2,4-dioxo-3,4-dihydropyrimidin1(2H)-yl)methyl-2-((S)-2-((2S,3R)-3-amino-2-hydroxy-4-phenylbut-anamido)-4-methylpentanamido)acetate hydrochloride at 4 mg/ml after 8 hrs by HPLC method; format: ADME, cell-free
U-266 [31] = test: Antiproliferative activity against human U266 cells in presence of ubenimex after 48 hrs by MTT assay; format: functional, cell-based; settings: U-266, 48 h
[32] = Terminal Half life in Wistar rat at 80 mg/kg, iv after 0.05 to 24 hrs by HPLC-MS/MS analysis; format: ADME, organism-based; settings: Wistar, in vivo, read-out: beta t1/2 (converted)
Aminopeptidase N = target: T1, Aminopeptidase N (Sus scrofa, UniProt P15145); test: Inhibition of porcine kidney CD13 using L-leucine-p-nitroanilide as substrate preincubated for 5 mins followed by substrate addition measured after 30 mins
T1 sequence (P15145 whole entry): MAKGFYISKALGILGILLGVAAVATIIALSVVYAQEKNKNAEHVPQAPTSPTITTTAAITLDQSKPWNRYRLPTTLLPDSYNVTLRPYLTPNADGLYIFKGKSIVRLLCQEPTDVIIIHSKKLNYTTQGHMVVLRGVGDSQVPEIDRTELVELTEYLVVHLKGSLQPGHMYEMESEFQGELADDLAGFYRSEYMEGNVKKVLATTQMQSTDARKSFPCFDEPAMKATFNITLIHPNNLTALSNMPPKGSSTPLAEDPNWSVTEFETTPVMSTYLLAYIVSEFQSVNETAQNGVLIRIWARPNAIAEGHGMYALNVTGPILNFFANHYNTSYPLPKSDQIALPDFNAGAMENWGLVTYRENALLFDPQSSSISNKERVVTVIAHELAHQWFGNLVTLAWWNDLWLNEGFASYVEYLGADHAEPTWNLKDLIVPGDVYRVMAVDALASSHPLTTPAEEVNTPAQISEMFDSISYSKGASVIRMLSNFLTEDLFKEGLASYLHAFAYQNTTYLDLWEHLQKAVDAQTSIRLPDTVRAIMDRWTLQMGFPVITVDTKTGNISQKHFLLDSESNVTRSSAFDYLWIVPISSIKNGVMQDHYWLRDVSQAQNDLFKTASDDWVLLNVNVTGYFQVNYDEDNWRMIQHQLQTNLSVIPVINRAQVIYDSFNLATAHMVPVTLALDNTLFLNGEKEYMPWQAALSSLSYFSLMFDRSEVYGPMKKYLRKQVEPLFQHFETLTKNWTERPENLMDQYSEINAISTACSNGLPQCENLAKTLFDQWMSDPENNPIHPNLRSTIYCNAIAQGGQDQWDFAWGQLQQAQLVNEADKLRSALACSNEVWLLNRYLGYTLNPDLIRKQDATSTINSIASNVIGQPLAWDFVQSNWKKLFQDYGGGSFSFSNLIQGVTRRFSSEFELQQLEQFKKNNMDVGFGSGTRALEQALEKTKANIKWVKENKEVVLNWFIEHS

With O=c1[nH]cc(F)c(=O)[nH]1 [FLUOROURACIL] the Drug metabolism [1] was “Metabolite_Detected”, the Activity (PLC-PRF-5 [2]) was 0% and the Vd [3] was 20.1 L/kg. For the same compound, the Activity (PLC-PRF-5 [4]) was “Active”, the MRT inf [5] was 2.48 h and the Activity (PLC-PRF-5 [6]) was 0%. For the same compound, the IC50 [7] was 21.9 µM, the Activity (PLC-PRF-5 [8]) was 20.1% and the IC50 (PLC-PRF-5 [9]) was 35.7 µM. The Activity (H22) was “inactive”, the IC50 (HepG2 [10]) was 18.4 µM and the IC50 (HepG2 [11]) was 14.5 µM. It also gave a Cmax [12] of 3810 ng/mL, an IC50 (A549) of 17 µM and a viability at 20 µM (PLC-PRF-5 [13]) of 64.3%. For the same compound, the viability at 20 µM (PLC-PRF-5 [14]) was 73.1%, the IC50 (HCT-116 [15]) was 44.1 µM and the Activity (PLC-PRF-5 [16]) was 2.38%. For the same compound, the IC50 (U-937 [17]) was 28.8 µM, the IC50 (U-937 [18]) was 9.56 µM and the Activity (PLC-PRF-5 [19]) was “inactive”. For the same compound, the IC50 (HCT-116 [20]) was 53.8 µM, the IC50 (U-266 [21]) was 66.2 µM and the IC50 (cells [22]) was 71.5 µM. The IC50 (cells [23]) was 17.6 µM, the Activity (PLC-PRF-5 [24]) was 33.3% and the clearance [25] was 98.4 mL/min/kg. It also gave an AUC(0-inf) [26] of 13600 ng·h/mL, an Activity (PLC-PRF-5 [27]) of 6.8% and an IC50 (cells [28]) of 37.1 µM. For the same compound, the VRT (Rattus norvegicus) was 4.205 hr2, the IC50 (PLC-PRF-5 [29]) was 22.8 µM and the Drug metabolism [30] was “Metabolite_Detected”. It also gave an IC50 (U-266 [31]) of 43.5 µM and a half-life [32] of 2.35 h.
For CC(C)C[C@H](NC(=O)[C@@H](O)[C@H](N)Cc1ccccc1)C(=O)N[C@@H](C)C(=O)OCn1cc(F)c(=O)[nH]c1=O, the IC50 (PLC-PRF-5 [9]) was 24.2 µM, the IC50 (Aminopeptidase N) was 0.17 µM and the IC50 (cells [22]) was 25.3 µM.
